{
  "source": "patent US10596110B2",
  "about": "“Residence structures and related methods” (Massachusetts Institute of Technology, priority 2014, dated 2020)",
  "experiment": "Stability of drugs in acidic conditions, in solution or in PCL structures (HPLC)",
  "type": "physicochemical",
  "settings": "IAW, pH=1, 37° C.",
  "protocol": "Stability of drugs in the gastric environment was evaluated using HPLC and LC-MS/MS analysis. Hydrophilic drugs were dissolved in simulated gastric fluid (SGF, 0.2% (w/v) NaCl, 0.83% (v/v) HCL, pH=1) in centrifuge tubes. Hydrophobic drugs were dissolved in IAW (isopropanol 70%, acetonitrile 20%, water 10%) with pH adjusted to 1 using HCL. As a control, drugs were dissolved in the same solvents with pH adjusted to 6.0 (using IM NaOH). After vortexing for 1 min and sonication for 10 min, tubes were placed in a shaking incubator (150 rpm, 37° C.). Samples were collected at defined time points for up to two weeks and analyzed by HPLC and LC-MS/MS to quantify the stability of drugs.\nStability of drugs loaded into PCL based delivery matrices were also studied. Loading of drugs is described below in Examples 16 and 17. Drug loaded structures were kept at acidic conditions (pH=1, 37° C.) and at defined intervals, drug was extracted from the PCL matrix and analyzed by HPLC and/or LC-MS/MS. In order to extract drugs, structures were sonicated in SGF (hydrophilic drugs) or isopropanol (hydrophobic drugs) for 10 min. Fresh drug in SGF or Isopropanol was prepared immediately before analysis as controls.\nIvermectin (IVM) loaded structures, shown in FIG. 16B, were placed in SGF+RH solution (pH=1, 37° C.) for 72 h. Drug was extracted by sonicating the structure in isopropanol for 10 min.",
  "data": [
    {"substance": "Ivermectin", "values": [
      {"measurement": "Stability in acidic conditions (in solution)", "result": "unstable"}
    ]}
  ]
}
